Tests used:
[1] = system: existing sprouts on post-dormant potatoes with peeps and sprouts extant; assay: Comparison of thermofogged sprout suppressing chemicals for "burn" of existing sprouts (Example IV); format: in vivo; design: key to Burn “old” / Burn “new”: +: indicates fair effectiveness; ++: indicates good effectiveness; +++: indicates excellent effectiveness; A minus (−) sign indicates no noticeable effect; a +/− sign indicates only partial effectiveness at a minimal level; conditions: for Burn “old”: effect upon old sprouts, up to nine months old; for Burn “old” / Burn “new”: thermofogged at comparable dosages; for Burn “new”: newly emerged sprouts and peeps, generally less than a month
Protocol: Various sprout suppressing chemicals were compared for their ability to suppress existing sprouts on post-dormant potatoes with peeps and sprouts extant. […] Clove oil applied at a predetermined dosage gave a “burn” effectiveness of 46% of existing peeps while 1-nonanol at a dosage one-fourth as great gave a 50% “burn.” At a one-half dosage, 1-nonanol provided a 100% “burn” effectiveness within 24 hours after treatment. In the above table “Burn old” refers to the effect upon old sprouts, which included sprouts up to nine months old, these being generally more difficult to desiccate, while “burn new” refers to newly emerged sprouts and peeps, generally less than a month or so in existence.

[2] = system: peeps and sprouts on stored potatoes; assay: Thermofog treatment of stored potatoes with 1-nonanol to determine sprout destruction (Example II); format: in vivo
Protocol: Stored potatoes in a small open container were treated with 1-nonanol (n-nonyl alcohol) via a thermofogger to determine sprout destruction. The thermofogger was operated at an aerosol chamber temperature of about 500° F. A good stable aerosol was produced. The alcohol was applied at a dosage of 8 ml for 2 kg of potatoes. The system was open so that the actual dosage reaching the potatoes was considerably less than the fogged amount. The potatoes were exposed to the thermofog for approximately one minute, after which the treatment containers (1-gallon bottles) were sealed and held at 53° F. for 24 hours before being connected to normal storage ventilation. In a first test the potatoes had white “peeps” showing from the eyes before treatment. […] In a second test the potatoes were treated with 1-nonanol at the same fogging temperature and dosage for the same period of time to achieve the same application dosage as in Example I. The potatoes in this storage had sprouts averaging in excess of about 2 cm in length. In this experiment, potatoes with very long sprouts, some up to eight cm or more, were treated with 1, 2, and 4 times sequentially with full strength nonanol. […] This “spray-paint” method was thus used to try to bring the total amount (rate) of nonanol up to a level capable of killing large sprouts as well as peeps, a necessity in commercial settings where sprouts of all sizes exist. It required 4 applications to reach the level at which these large sprouts were completely killed. […] While this was a small scale test, a whole storage full of potatoes in this condition would likely lead to secondary decays. Single or even double applications didn't reach a level of nonanol high enough to completely kill these large-sized sprouts.

[3] = system: peeps and sprouts; assay: Fogging of 1-nonanol versus clove oil, "burning" peeps and sprouts (Example III); format: in vivo, potatoes; conditions: short duration, similar dosages
[4] = system: potatoes; assay: 1-octanol thermofog on cold versus 53° F. potatoes, condensation damage (Example V); format: in vivo
Protocol: An experiment was performed wherein 1-octanol at various dosages were applied to potatoes wherein the temperature of the potatoes was at about 36° F. The 1-octanol was applied via an electric thermofogger at a fog temperature within the fogger of about 500° F. to obtain a stable aerosol. The potatoes were examined about 24 hours after treatment. […] The potatoes were cut open at the dark spots. Damage to the flesh of the potatoes existed to a depth of about 5 mm to 25 mm. Potato flesh was otherwise undamaged except under the dark spots.

[5] = system: stored potatoes; conditions: continuous vapors by wicking over an extended period; cited from earlier work

CCCCCCCCCO [1-Nonanol, 1-nonanol]
“burn” effectiveness of existing peeps ([1]; dosage one-fourth as great as the clove oil dosage): 50% | Burn “old” [1]: +++ | Burn “new” [1]: +++ | “burn” effectiveness of existing peeps ([1]; one-half dosage, within 24 hours after treatment): 100% | effect on white “peeps” ([2]; first test, 8 ml for 2 kg of potatoes fogged, open system, inspected about 24 hours after treatment): burned to a dark color and were inactivated | damage to potato flesh adjacent the eyes ([2]; first test, about 24 hours after treatment): without any damage to potato flesh adjacent the eyes | negative side effect observed ([2]; second test, 4 applications on large sprouts): wet, slimy, sprout rot | applications required to completely kill large sprouts ([2]; second test, sprouts up to eight cm or more, sequential full strength applications): 4 applications | effectiveness in “burning” peeps and sprouts relative to clove oil [3]: about four times as effective as clove oil

CCCCCCCCO [1-Octanol, 1-octanol]
depth of damage to the flesh at the dark spots ([4]; potato, in vivo, 24 h): 5-25 mm | condition of potato skin ([4]; potatoes at about 36° F., examined about 24 hours after treatment): large dark damaged spots | injury to potato skin or flesh ([4]; potatoes held at 53° F., similar dosage, fogging temperature and rate): did not show injury to the potato skin or to its flesh | Burn “old” [1]: ++ | Burn “new” [1]: +++

CCCCCCCCCCO [1-Decanol, 1-decanol]
Burn “old” [1]: ++ | Burn “new” [1]: ++

CC(CCO)CC(C)(C)C (centres unmarked) [3,5,5-trimethyl hexanol]
damage to potato flesh [5]: damaged potato flesh, especially near affected eyes | effect on existing sprouts [5]: strongly “burned” (desiccated) existing sprouts

CCCCCOC(C)=O [AmylAcetate, reference compound]
Burn “new” [1]: ++

CCCCCCO [Hexanol]
Burn “old” [1]: + | Burn “new” [1]: ++

CCCCCCCCCCCCO [Dodecanol]
Burn “old” [1]: −\+ | Burn “new” [1]: −

From US20140200142A1, “TREATMENT OF STORED TUBERS WITH AEROSOLS OF HIGHER ALCOHOLS” (1,4 Group, Inc., priority 2013, published 2014)
